Data taken from patent US11801310B2, “Composition for improving the solubility of poorly soluble substances, use thereof and complex formulation containing thereof” (Industrial Technology Research Institute, priority 2017, dated 2023).
Converted amounts (≈) assume the structure as drawn.

Legend:
[1] = at 25° C.; cited from earlier work
[2] = Solubility test for loteprednol etabonate (LE), Example 1-1: different amino acids, oligopeptides or monosaccharide as stabilizer; type: physicochemical; conditions: aqueous with cosolvent or surfactant or cyclodextrin, thermodynamic from solid; LE feeding 4000 μg; re-dissolved in 2 mL deionized water, pH 5.5, room temperature, 0.22 μm filtered, HPLC
Experimental: The samples were formulated and analyzed according to the formulas shown in the following Table 1 and the methods described below at room temperature. […] After that, the mixture was dried in a vacuum environment to performing drying to remove the solvent therein and obtain a dried product. […] Next, the test sample was filtered with a 0.22 μm pore size filter to remove undissolved precipitate. Finally, the content of loteprednol etabonate (LE) in the test sample was analyzed by high performance liquid chromatography (HPLC).

[3] = Solubility test for LE, Example 1-2: histidine as stabilizer; type: physicochemical; conditions: secondary water, aqueous with cosolvent or surfactant or cyclodextrin; final volume 1 mL, pH 5.5, room temperature, 0.22 μm filtered, HPLC
Description: The samples were formulated and analyzed according to the formulas shown in the following Table 3 and the methods described below at room temperature.
Hydroxypropyl-γ-cyclodextrin, a water-soluble polymer (hydroxypropyl methyl cellulose (HPMC) (molecular weight: 16676)), and histidine (His) as a stabilizer of the formulation were co-dissolved in secondary water to form a solution.
[…] After that, […], and the pH was adjusted to 5.5 with a 0.1 M HCl aqueous solution, and the final solution volume was fixed to 1 mL (the insufficient portion was replenished with secondary water) to form a test sample. Thereafter, the test sample was then filtered with a 0.22 μm pore size filter to remove undissolved precipitate. Finally, the content of loteprednol etabonate (LE) in the test sample was analyzed by high performance liquid chromatography (HPLC).

[4] = Solubility test for LE, Example 1-3: glutathione as stabilizer; type: physicochemical; conditions: secondary water, aqueous with cosolvent or surfactant or cyclodextrin; final volume 1 mL, pH 5.5, room temperature, 0.22 μm filtered, HPLC
Experimental: The samples were formulated and analyzed according to the formula shown in the following Table 5 and the methods described below at room temperature.
[…] After that, the mixture was treated by a rotary evaporator to completely remove methanol, and the pH was adjusted to 5.5 with a 1 M NaOH aqueous solution, and the final solution volume was fixed to 1 mL (the insufficient portion was replenished with secondary water) to form a test sample. Thereafter, the test sample was then filtered with a 0.22 μm pore size filter to remove undissolved precipitate. Finally, the content of loteprednol etabonate (LE) in the test sample was analyzed by high performance liquid chromatography (HPLC).

| SMILES | Water solubility [1] [mM] | solubility [2] [µg/mL] | solubility [3] [µg/mL] | solubility [4] [µg/mL] |
| --- | --- | --- | --- | --- |
| N[C@@H](CCC(=O)N[C@@H](CS)C(=O)NCC(=O)O)C(=O)O [GSH, glutathione] | 950 | – | – | – |
| CCOC(=O)O[C@]1(C(=O)OCCl)CC[C@H]2[C@@H]3CCC4=CC(=O)C=C[C@]4(C)[C@H]3[C@@H](O)C[C@@]21C [LE, loteprednol etabonate] | – | 1.5 (≈ 3.21 µM) | 1.5 (≈ 3.21 µM) | 1.5 (≈ 3.21 µM) |
| OC[C@@H](O)[C@@H](O)[C@H](O)[C@H](O)CO [Mannitol, mannitol] | 1190 | – | – | – |
